{
  "source": "patent US20080305520A9",
  "about": "“Mechanosensitive ion channels and methods of use” (priority 2004, published 2008)",
  "key": {"[1]": {"test_system": "[Ca^2+]i fluctuations in migrating PC3 cells", "experiment": "Fura-2 Ca2+ imaging of [Ca2+]i fluctuations in migrating PC3 cells", "type": "cell-based, human", "details": "for sustained and transient [Ca^2+]i oscillations: same concentrations that blocked/reduced MscCa activity and PC3 cell migration, 9 cells, 3 experiments", "experimental": "Two distinct types of [Ca^2+]i fluctuations were observed; a sustained Ca^2+)1 that increased from the front of the cell to the rear and was maintained for the duration of the locomotion cycle (up to 3 hours) measured from tether formation to tether release; and a fast transient [Ca2+i wave that spread rapidly through out the cell and lasted <1 minute (the time interval between frames) with an average frequency of 6 waves in 30 minutes. Both sustained and transients [Ca2+]i fluctuations were associated with moving cells. All three anti-MscCa agents described above, abolished both forms of [Ca^2+]i oscillations at the same concentrations that blocked/reduced MscCa activity and PC3 cell migration (9 cells, 3 experiments). Again, whereas with Gd and GsmTx4 the block was reversible, there was no recovery after the anti-TRPCI Ab washout.\n(§1) Time-lapse videomicroscopy and Ca 2-imaging were conducted as follows. Cell migration was monitored by time-lapse videomicroscopy using Nomarski optics with an Epifluorescent microscope (TE 200). The time-lapse images were acquired and saved at 5 minute intervals using Metafluor software. Calcium imaging assays were carried out on cells previously loaded with Fura-2 AM (5 tm for 30 minutes). Time-lapse fluorescence images were consecutively acquired at 340 and 380 wavelengths and transmission (DIC) at intervals of I minute using Metafluor. Data analysis was carried out using Metamorph (Version 6. 1) and Excel] 2000. Conversion of pixels to gm based on a calibrated slide to represent the cell trajectories in the field.\n(§2) The day before transfection cells were seeded at 50-60% density on sterile coverslips in a 6 well plate in culture medium without antibiotic. Transfection of 100 nM of double stranded siRNA Cy3 labeled per well (Ambion #731 1 and negative control, Ambion, Austin, TX was carried using Lipofectamine 2000 (Invitrogen, Carlsbad, CA) according to the manufacturer's instructions for siRNA transfections. Cells were stored in the incubator after the addition of the complexes and 7% FCS medium without antibiotic was added after the first 6 hours of transfection. The next day the supernatant was removed and normal culture medium replaced. Cells were tested by patch clamp and videomicroscopy during the next 48-72 hours, using the patch clamp and videomicroscopy methods described above in examples 4 and 5. […] The foregoing detailed description and examples have been given for clarity of understanding only. No unnecessary limitations are to be understood therefrom. The invention is not limited to the exact details shown and described, for variations obvious to one skilled in the art will be included within the invention defined by the claims."}, "[2]": {"test_system": "PC3 cells", "experiment": "PC3 cell migration by time-lapse videomicroscopy", "type": "cell-based, human", "details": "for PC3 cell migration: one hour intervals before, during and after exposure; for reversibility of migration block with washout: up to 1 hour", "experimental": "The effect of the three anti-MscCa agents on PC3 cell migration was tested using time-lapse videomicroscopy to record the trajectory of the migrating prostate tumor cells. Selected video frames were prepared at 15 minute intervals, showing a cluster of 7 PC3 cells as they migrate out from the cluster. […] All three agents blocked cell migration.\nas §1, §2"}, "[3]": {"target": "T1, MscCa in PC3 cells (Homo sapiens, UniProt P48995)", "T1 construct": "host or cells: PC3 human prostate tumor cells", "T1 sequence (P48995 whole entry)": "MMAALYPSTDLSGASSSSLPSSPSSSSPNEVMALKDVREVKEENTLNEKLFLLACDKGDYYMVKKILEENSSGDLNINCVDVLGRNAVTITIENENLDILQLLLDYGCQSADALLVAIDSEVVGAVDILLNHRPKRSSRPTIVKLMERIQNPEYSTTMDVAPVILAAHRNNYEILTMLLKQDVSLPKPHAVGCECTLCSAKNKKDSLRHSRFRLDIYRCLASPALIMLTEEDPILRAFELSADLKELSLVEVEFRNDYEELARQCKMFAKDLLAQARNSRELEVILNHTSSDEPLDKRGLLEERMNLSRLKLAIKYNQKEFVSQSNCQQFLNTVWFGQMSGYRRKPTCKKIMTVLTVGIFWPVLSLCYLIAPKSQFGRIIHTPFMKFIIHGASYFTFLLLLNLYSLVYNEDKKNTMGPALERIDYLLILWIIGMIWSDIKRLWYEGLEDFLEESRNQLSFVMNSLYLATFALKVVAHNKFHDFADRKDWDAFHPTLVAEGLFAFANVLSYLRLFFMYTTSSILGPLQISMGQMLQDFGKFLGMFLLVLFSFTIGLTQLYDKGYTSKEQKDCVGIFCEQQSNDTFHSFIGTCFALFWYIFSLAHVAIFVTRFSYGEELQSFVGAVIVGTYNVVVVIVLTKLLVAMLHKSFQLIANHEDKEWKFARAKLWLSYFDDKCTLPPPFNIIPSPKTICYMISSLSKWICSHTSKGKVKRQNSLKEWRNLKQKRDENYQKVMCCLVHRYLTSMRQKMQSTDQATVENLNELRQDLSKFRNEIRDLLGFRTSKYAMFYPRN", "experiment": "Cell-attached patch-clamp recording of MscCa activity in PC3 cells", "type": "cell-based", "experimental": "PC3 cell lines were grown in RPM1 1640 medium with 25 mM Hepes and glutamine, supplemented with 7% fetal calf serum, I mM sodium pyruvate, 4.5 g/L glucose, penicillin G (10,000 U/ml) and streptomycin sulfate (10,000 tg/ml) at 37° C. in a humidified 95% 02-5% C02 atmosphere. For patch-lamp studies, cells were seeded at low density on sterile coverslips placed in 33 mm culture dishes and tested during the next 2 - 5 days. Patch clamp recording was conducted as follows. Standard cell-attached patch-clamp recording was used to record single channel currents. The pipettes were made from thin-walled borosilicate glass (World Precision Instruments, Stevenage, UK) with an outside tip diameter of -2 Wm. Immediately prior to patch clamping, a cover slip was removed from the culture dish, glued with dots of silcone to a 35 mm culture, and placed in a microscope stage holder. Cells were visualized with an IM35 Zeiss microscope with fluorescence and Normaski optics. A pressure-clamp (McBride, D.W., Jr. & Hamill, O. P., PflLigers Archiv. 421, 606-612 (1992)) was used to apply pressure and suction protocols to achieve the initial tight seal and stimulate MS channels. […] This voltage-dependent gating of the open channel is also a characteristic of the prototypical MscCa, native to the frog oocyte (Taglietti et al., J. Physiol., 407, 311 (1988)), identified as being formed by the transient receptor channel protein I (TRPCI). The current-voltage relationship of the prostate MscCa measured with a 100 mM K+, zero Ca^2+in the pipette solution indicates an inwardly rectifying single channel conductance (-70 pS chord conductance at -100 mV and 20 pS at 50 mV) (Fig. • SB) that is essentially identical to that of the oocyte MscCa indicating a common pore structure. […] In the “sustained mode” (SM), the channels remained open for the duration of stimulation (Fig. SC), while in the “transient mode” (TM) the channels closed rapidly (cO.5 s) (FIG. 5C). […]"}, "[4]": {"test_system": "MscCa", "experiment": "Pressure-clamp cell-attached patch recording of MscCa currents in Xenopus oocytes", "type": "cell-based", "details": "oocyte cell-attached patches; EGTA left out of pipette solution"}, "[5]": {"test_system": "prostate tumor cell", "details": "medium containing serum; Cancer Letters 145 (1999); cited from earlier work"}, "[6]": {"test_system": "fish epithelial keratocyte", "details": "Lee et al., Nature 400 (1999), cited from earlier work"}, "[7]": {"test_system": "prostate tumor cells", "details": "cited from earlier work"}, "[8]": {"test_system": "Ca^2+-activated K+channel", "experiment": "Delayed outward channel currents after MscCa activation, PC3 cell-attached patch", "type": "cell-based, human", "details": "50 nM charybdotoxin in the pipette solution; 1 mM external Ca^2+", "experimental": "PC3 cell lines were grown in RPM1 1640 medium with 25 mM Hepes and glutamine, supplemented with 7% fetal calf serum, I mM sodium pyruvate, 4.5 g/L glucose, penicillin G (10,000 U/ml) and streptomycin sulfate (10,000 tg/ml) at 37° C. in a humidified 95% 02-5% C02 atmosphere. For patch-lamp studies, cells were seeded at low density on sterile coverslips placed in 33 mm culture dishes and tested during the next 2 - 5 days. Patch clamp recording was conducted as follows. Standard cell-attached patch-clamp recording was used to record single channel currents. The pipettes were made from thin-walled borosilicate glass (World Precision Instruments, Stevenage, UK) with an outside tip diameter of -2 Wm. Immediately prior to patch clamping, a cover slip was removed from the culture dish, glued with dots of silcone to a 35 mm culture, and placed in a microscope stage holder. Cells were visualized with an IM35 Zeiss microscope with fluorescence and Normaski optics. […] The current-voltage relationship of the prostate MscCa measured with a 100 mM K+, zero Ca^2+in the pipette solution indicates an inwardly rectifying single channel conductance (-70 pS chord conductance at -100 mV and 20 pS at 50 mV) (Fig. • SB) that is essentially identical to that of the oocyte MscCa indicating a common pore structure. […]"}},
  "note": "Entries after “also recorded” stand apart in the source; their conditions may differ.",
  "data": [
    {"compound": "[Gd+3]", "note": "[Gd^3+, gadolinium ion]", "values": [
      {"measurement": "sustained and transient [Ca^2+]i oscillations", "setting": "[1]", "value": "abolished"},
      {"measurement": "reversibility of block of [Ca^2+]i oscillations after washout", "setting": "[1]", "value": "reversible"},
      {"measurement": "PC3 cell migration", "setting": "[2]; Gd^3+", "value": "blocked"},
      {"measurement": "reversibility of migration block with washout", "setting": "[2]", "value": "reversible"},
      {"measurement": "MscCa activity", "setting": "[3]; Gd^3+ also included in the pipette-tip solution, 20 out of 20 patches", "value": "abolished"},
      {"measurement": "MscCa patch current (channel block)", "setting": "[3]; Gd^3+ in back solution at 5 µM, -3 minutes after tight seal, pressure steps", "value": "block the channel"},
      {"measurement": "block of native and TRPC1-expressed MscCa", "setting": "[4]", "value": "equally effective in blocking"},
      {"measurement": "prostate tumor cell motility", "setting": "[5]", "value": "enhanced rather than inhibited"},
      {"measurement": "Ca^2+ transients", "setting": "[6]", "value": "abolishes"},
      {"measurement": "cell migration", "setting": "[6]; prevents rear detachment", "value": "inhibiting"}
    ]},
    {"compound": "NC1=N[C@H](O)[C@H]2[C@H]3O[C@]4(O)O[C@@H]([C@@H](O)[C@@]2(N1)[C@@H]4O)[C@]3(O)CO", "note": "[tetrodotoxin]", "values": [
      {"measurement": "invasiveness", "setting": "[7]", "value": "reduce invasiveness"}
    ]},
    {"compound": "GCLEFWWKCNPNDDKCCRPKLKCSKLFKLCNFSSG [GsmTx-4]", "values": [
      {"measurement": "sustained and transient [Ca^2+]i oscillations", "setting": "[1]", "value": "abolished"},
      {"measurement": "reversibility of block of [Ca^2+]i oscillations after washout", "setting": "[1]", "value": "reversible"},
      {"measurement": "PC3 cell migration", "setting": "[2]; GsMTx-4 3 μM", "value": "blocked"},
      {"measurement": "reversibility of migration block with washout", "setting": "[2]", "value": "reversible"},
      {"measurement": "MscCa activity", "setting": "[3]; 3 μM GsmTx-4 in pipette, SM or TM gating mode", "value": "blocked; also recorded: effective in blocking"}
    ]},
    {"compound": "charybdotoxin (QFTNVSCTTSKECWSVCQRLHNTSRGKCMNKKCRCYS)", "values": [
      {"measurement": "delayed activation of outward channel currents after MscCa inward currents", "setting": "[8]", "value": "absent"}
    ]}
  ]
}
